Patent US8425917B2 (priority 2001, dated 2013)
Entries after “also recorded” stand apart in the source; their conditions may differ. Read-outs that look alike come from different tables or passages of the source. Square brackets hold non-standard residues; d marks the D form. Peptide text beside a SMILES is read from it. * marks the point of attachment. Sta = CC(C)C[C@H](N)[C@@H](O)CC(=O)O; Isovaleryl = CC(C)CC(=O)*; Cbz = O=C(OCc1ccccc1)*

How the values were obtained:
Format in all cases: cell-based, mouse (C57BL/6)
[1] = test system: EtxB-mediated epitope delivery in JAWSII cells
[2] = test system: EtxB-mediated epitope delivery in JAWSII cells; remark: listed apart in the source
JAWSII cells = test system: JAWSII cells
JAWSII dendritic cells = test system: JAWSII dendritic cells
[3] = test system: MHC-I/SIINFEKL complex on JAWSII cells

## c1cnc2c(c1)ccc1cccnc12 [1,10-phenanthroline]
[1]
  effect on EtxB-mediated epitope presentation (conjugate not specified): found to inhibit

## CC(C)C[C@@H](C=O)NC(=O)[C@H](CC(C)C)NC(=O)[C@H](CC(C)C)NC(=O)OCc1ccccc1 [MG132] (Cbz-Leu-Leu-Leu-aldehyde)
[1]
  effect on direct loading and presentation of free 8mer peptide: failed to prevent
  effect on epitope presentation by EtxB-19mer: failed to prevent
  effect on epitope presentation by EtxB-31mer: completely blocked

## CC(C)C[C@H](NC(=O)[C@@H](O)[C@H](N)Cc1ccccc1)C(=O)O [bestatin]
[1]
  effect on EtxB-mediated epitope presentation (conjugate not specified): no significant effects

## CC[C@H](C)[C@H](NC(=O)[C@H]([C@@H](C)CC)N(C)C(C)=O)C(=O)N[C@H](C(=O)N[C@@H](CC(C)C)C(=O)[C@@]1(C)CO1)[C@@H](C)O [epoxomicin]
[2]
  effect on epitope presentation by EtxB-19mer: no inhibition of epitope presentation was observed
  effect on epitope presentation by EtxB-31mer: completely blocked
[1]
  effect on direct loading and presentation of free 8mer peptide: no inhibition of epitope presentation was observed
  effect on epitope presentation by EtxB-19mer: no inhibition of epitope presentation was observed
  effect on epitope presentation by EtxB-31mer: completely blocked
JAWSII cells
  effect on MHC-I/SIINFEKL staining in cells treated with EtxB-19mer: normal co-localisation of WGA and MHC-I/SIINFEKL complexes was observed
  effect on MHC-I/SIINFEKL staining in cells treated with EtxB-31mer: no staining with MHC-I/SIINFEKL-specific antibodies was obtained

## CC(=O)N[C@@H](CSC(=O)[C@]1([C@@H](O)C(C)C)NC(=O)[C@H](C)[C@@H]1O)C(=O)O [lactacystin]
[1]
  effect on direct loading and presentation of free 8mer peptide: failed to prevent
  effect on epitope presentation by EtxB-19mer: failed to prevent
  effect on epitope presentation by EtxB-31mer: completely blocked

## CC(=O)N[C@@H](CC(C)C)C(=O)N[C@@H](CC(C)C)C(=O)N[C@H](C=O)CCCNC(=N)N [leupeptin]
[1]
  effect on EtxB-mediated epitope presentation (conjugate not specified): no significant effects

## CC[C@@]1([C@@H]2O[C@@H]([C@H]3O[C@@](O)(CO)[C@H](C)C[C@@H]3C)C[C@@H]2C)CC[C@H]([C@]2(C)CC[C@]3(C[C@H](O)[C@@H](C)[C@@H]([C@@H](C)[C@@H](OC)[C@H](C)C(=O)O)O3)O2)O1 [monensin]
[1]
  effect on EtxB-mediated epitope presentation (conjugate not specified): prevented; also recorded: inhibited
  effect on direct loading and presentation of free 8mer peptide: unaffected

## CC(C)CC(=O)N[C@H](C(=O)N[C@H](C(=O)N[C@@H](CC(C)C)[C@@H](O)CC(=O)N[C@@H](C)C(=O)N[C@@H](CC(C)C)[C@@H](O)CC(=O)O)C(C)C)C(C)C [pepstatin] (Isovaleryl-VV[Sta]A[Sta]-OH)
[1]
  effect on extent of EtxB-mediated presentation of the 26mer peptide: no effect

## Bafilomycin A1 [BafA1]
[2]
  effect on epitope delivery by EtxB-9mer, -16mer, -19mer, -26mer and -26mer* conjugates: complete inhibition
  effect on epitope presentation by EtxB-31mer: prevented
[1]
  effect on EtxB-mediated epitope presentation (conjugate not specified): inhibited
  effect on direct loading and presentation of free 8mer peptide: did not inhibit
  effect on epitope delivery by EtxB-9mer, -16mer, -19mer, -26mer and -26mer* conjugates: complete inhibition
  effect on epitope presentation by EtxB-31mer: prevented
JAWSII cells
  effect on MHC-I/SIINFEKL complexes in cells treated with EtxB-19mer or EtxB-31mer: no detectable MHC-I/SIINFEKL complexes were observed

## Brefeldin A [BFA]
[2]
  effect on epitope delivery by EtxB-9mer, -16mer, -19mer, -26mer and -26mer* conjugates: complete inhibition
  effect on epitope presentation by EtxB-31mer: prevented
[1]
  effect on direct loading and presentation of free 8mer peptide: did not inhibit
  effect on epitope delivery by EtxB-9mer, -16mer, -19mer, -26mer and -26mer* conjugates: complete inhibition
  effect on epitope presentation by EtxB-31mer: prevented
JAWSII cells
  effect on MHC-I/SIINFEKL complexes in cells treated with EtxB-19mer or EtxB-31mer: no detectable MHC-I/SIINFEKL complexes were observed

## CAVGAGATAEESIINFEKL [19mer]
JAWSII dendritic cells
  extent of class I epitope presentation (IL-2 release): virtually no presentation occurred

## CSIINFEKL [9mer]
JAWSII dendritic cells
  extent of class I epitope presentation (IL-2 release): significantly stimulated class I presentation

## SIINFEKL [8mer]
[3]
  MHC-I/SIINFEKL complexes (shift in fluorescence): clear and similar shift in fluorescence
JAWSII dendritic cells
  extent of class I epitope presentation (IL-2 release): significantly stimulated class I presentation
  kinetics of class I peptide presentation (in words): peptide presentation at the earliest time point tested
